Results reported in patent US10703764B2, “Benzopiperazine compositions as BET bromodomain inhibitors” (FORMA Therapeutics, Inc., priority 2013, dated 2020).
Where two headings read alike, the source gives them in different places.

How the values were obtained:
BRD4 BD2 = target: T1, BRD4 BD2 (Homo sapiens, UniProt O60885); test: AlphaScreen binding assay, BRD4 Bromodomain 2
T1 construct: made in house
Procedure, shortened: (§1)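 An AlphaScreen competition format was used with His-BRD4 BD1 or BD2 and biotin-H4 K5/8/12/16-acetyl peptide, each at matched final levels of 50 nM (BD1) or 100 nM (BD2). Incubation in HEPES/NaCl buffer with 0.1% BSA and 0.01% Triton X-100 ran ≥1 h before IC50 determination.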

MV4-11 cells = test: Oncology cell growth assay (3-day proliferation, CellTiter-Glo); assay type: cell-based; settings: Homo sapiens, AML cell line MV4-11, 72 hours, compounds grouped by IC50 range, read-out: MV4-11 IC50 (inhibition of proliferation, gIC50)
Procedure, shortened: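 72 h, 37° C, 5% CO2; MV4-11, 3000 cells/well, RPMI 1640 + 10% FBS. Compound final 10, 3.3, 1.1, 0.37, 0.12, 0.041, 0.013, 0.0045 μM. Readout CellTiter-Glo luminescence; gIC50 by 4-parameter logistic fit, normalised to DMSO and no-cell background.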

BRD4 BD1 = target: T2, BRD4 BD1 (Homo sapiens, UniProt O60885); test: AlphaScreen binding assay, BRD4 Bromodomain 1
T2 construct: made in house
Procedure, shortened: as §1

IC50 (BRD4 BD2) [nM]	IC50 (MV4-11 cells; MV4-11, 72 h) [nM]	IC50 (BRD4 BD1) [nM]	SMILES	IC50 (MV4-11 cells) [nM]
50 to 500	100 to 500	100 to 1000	CNS(=O)(=O)c1cccc(-c2ccc3c(c2)N(C(=O)OC(C)C)C[C@H](C)N3C(C)=O)c1 [Example I-1107]	
50 to 500	100 to 500	1000 to 10000	CC(=O)N1c2ccc(-c3cccc(S(=O)(=O)NCCO)c3)cc2N(C(=O)C2CC2)C[C@@H]1C [Example I-1108]	
50 to 500	> 500	1000 to 10000	CC(=O)N1c2ccc(-c3cccc(S(=O)(=O)NCCO)c3)cc2N(C(=O)C2CCC2)C[C@@H]1C [Example I-1109]	
50 to 500	100 to 500	1000 to 10000	CCOC(=O)N1C[C@H](C)N(C(C)=O)c2ccc(-c3cccc(S(=O)(=O)NCCO)c3)cc21 [Example I-1110]	
50 to 500	100 to 500	100 to 1000	CC(=O)N1c2ccc(-c3cccc(S(=O)(=O)NCCO)c3)cc2N(C(=O)OC(C)C)C[C@@H]1C [Example I-1111]	
50 to 500	100 to 500	1000 to 10000	CCN(CC)S(=O)(=O)c1cc(-c2ccc3c(c2)N(C(=O)C2CC2)C[C@H](C)N3C(C)=O)ccc1OC [Example I-1112]	
50 to 500	100 to 500	1000 to 10000	CCN(CC)S(=O)(=O)c1cc(-c2ccc3c(c2)N(C(=O)C2CCC2)C[C@H](C)N3C(C)=O)ccc1OC [Example I-1113]	
50 to 500	> 500	100 to 1000	CCOC(=O)N1C[C@H](C)N(C(C)=O)c2ccc(-c3ccc(OC)c(S(=O)(=O)N(CC)CC)c3)cc21 [Example I-1114]	
50 to 500	100 to 500	100 to 1000	CCN(CC)S(=O)(=O)c1cc(-c2ccc3c(c2)N(C(=O)OC(C)C)C[C@H](C)N3C(C)=O)ccc1OC [Example I-1115]	
50 to 500	> 500	1000 to 10000	CC(=O)N1c2ccc(-c3ccc(S(=O)(=O)n4cccn4)cc3)cc2N(C(=O)C2CCC2)C[C@@H]1C [Example I-1116]	
50 to 500	> 500	1000 to 10000	CCOC(=O)N1C[C@H](C)N(C(C)=O)c2ccc(-c3ccc(S(=O)(=O)n4cccn4)cc3)cc21 [Example I-1117]	
> 500	> 500	1000 to 10000	CC(=O)N1c2ccc(-c3ccc(S(=O)(=O)n4cccn4)cc3)cc2N(C(=O)OC(C)C)C[C@@H]1C [Example I-1118]	
50 to 500	100 to 500	1000 to 10000	CNS(=O)(=O)c1ccc(-c2ccc3c(c2)N(C(=O)C2CC2)C[C@H](C)N3C(C)=O)cc1 [Example I-1119]	
50 to 500	100 to 500	1000 to 10000	CNS(=O)(=O)c1ccc(-c2ccc3c(c2)N(C(=O)C2CCC2)C[C@H](C)N3C(C)=O)cc1 [Example I-1120]	
50 to 500	100 to 500	1000 to 10000	CCOC(=O)N1C[C@H](C)N(C(C)=O)c2ccc(-c3ccc(S(=O)(=O)NC)cc3)cc21 [Example I-1121]	
50 to 500	100 to 500	100 to 1000	CNS(=O)(=O)c1ccc(-c2ccc3c(c2)N(C(=O)OC(C)C)C[C@H](C)N3C(C)=O)cc1 [Example I-1122]	
50 to 500	100 to 500	1000 to 10000	CC(=O)N1c2ccc(-c3ccc(S(=O)(=O)N(C)C)cc3)cc2N(C(=O)C2CC2)C[C@@H]1C [Example I-1123]	
50 to 500	100 to 500	1000 to 10000	CC(=O)N1c2ccc(-c3ccc(S(=O)(=O)N(C)C)cc3)cc2N(C(=O)C2CCC2)C[C@@H]1C [Example I-1124]	
50 to 500	100 to 500	1000 to 10000	CCOC(=O)N1C[C@H](C)N(C(C)=O)c2ccc(-c3ccc(S(=O)(=O)N(C)C)cc3)cc21 [Example I-1125]	
50 to 500	100 to 500	1000 to 10000	CC(=O)N1c2ccc(-c3ccc(S(=O)(=O)N(C)C)cc3)cc2N(C(=O)OC(C)C)C[C@@H]1C [Example I-1126]	
50 to 500	100 to 500	1000 to 10000	CC(=O)N1c2ccc(-c3ccc(S(=O)(=O)NC(C)(C)C)cc3)cc2N(C(=O)C2CC2)C[C@@H]1C [Example I-1127]	
50 to 500	100 to 500	1000 to 10000	CC(=O)N1c2ccc(-c3ccc(S(=O)(=O)NC(C)(C)C)cc3)cc2N(C(=O)C2CCC2)C[C@@H]1C [Example I-1128]	

IC50 (BRD4 BD2) [nM]	IC50 (MV4-11 cells; MV4-11, 72 h) [nM]	IC50 (BRD4 BD1) [nM]	SMILES	IC50 (MV4-11 cells) [nM]
50 to 500	100 to 500	1000 to 10000	CCOC(=O)N1C[C@H](C)N(C(C)=O)c2ccc(-c3ccc(S(=O)(=O)NC(C)(C)C)cc3)cc21 [Example I-1129]	
50 to 500	100 to 500	100 to 1000	CC(=O)N1c2ccc(-c3ccc(S(=O)(=O)NC(C)(C)C)cc3)cc2N(C(=O)OC(C)C)C[C@@H]1C [Example I-1130]	
50 to 500	100 to 500	1000 to 10000	CC(=O)N1c2ccc(-c3ccc(N4CCCC4=O)cc3)cc2N(C(=O)C2CC2)C[C@@H]1C [Example I-1131]	
50 to 500	100 to 500	1000 to 10000	CC(=O)N1c2ccc(-c3ccc(N4CCCC4=O)cc3)cc2N(C(=O)C2CCC2)C[C@@H]1C [Example I-1132]	
50 to 500	100 to 500	1000 to 10000	CCOC(=O)N1C[C@H](C)N(C(C)=O)c2ccc(-c3ccc(N4CCCC4=O)cc3)cc21 [Example I-1133]	
50 to 500	100 to 500	100 to 1000	CC(=O)N1c2ccc(-c3ccc(N4CCCC4=O)cc3)cc2N(C(=O)OC(C)C)C[C@@H]1C [Example I-1134]	
50 to 500	100 to 500	100 to 1000	CCS(=O)(=O)Nc1ccc(-c2ccc3c(c2)N(C(=O)C2CC2)C[C@H](C)N3C(C)=O)cc1 [Example I-1135]	
50 to 500	100 to 500	100 to 1000	CCS(=O)(=O)Nc1ccc(-c2ccc3c(c2)N(C(=O)C2CCC2)C[C@H](C)N3C(C)=O)cc1 [Example I-1136]	
50 to 500	100 to 500	100 to 1000	CCNS(=O)(=O)c1ccc(-c2ccc3c(c2)N(C(=O)OCC)C[C@H](C)N3C(C)=O)cc1 [Example I-1137]	
50 to 500	100 to 500	100 to 1000	CCS(=O)(=O)Nc1ccc(-c2ccc3c(c2)N(C(=O)OC(C)C)C[C@H](C)N3C(C)=O)cc1 [Example I-1138]	
50 to 500	100 to 500	1000 to 10000	COc1ccc(-c2ccc3c(c2)N(C(=O)C2CC2)C[C@H](C)N3C(C)=O)cc1NS(C)(=O)=O [Example I-1139]	
50 to 500	100 to 500	1000 to 10000	COc1ccc(-c2ccc3c(c2)N(C(=O)C2CCC2)C[C@H](C)N3C(C)=O)cc1NS(C)(=O)=O [Example I-1140]	
50 to 500	100 to 500	100 to 1000	CCOC(=O)N1C[C@H](C)N(C(C)=O)c2ccc(-c3ccc(OC)c(NS(C)(=O)=O)c3)cc21 [Example I-1141]	
50 to 500	100 to 500	100 to 1000	COc1ccc(-c2ccc3c(c2)N(C(=O)OC(C)C)C[C@H](C)N3C(C)=O)cc1NS(C)(=O)=O [Example I-1142]	
50 to 500	100 to 500	1000 to 10000	CC(=O)N1c2ccc(-c3cccc(NS(=O)(=O)N(C)C)c3)cc2N(C(=O)C2CC2)C[C@@H]1C [Example I-1143]	
50 to 500	100 to 500	1000 to 10000	CC(=O)N1c2ccc(-c3cccc(NS(=O)(=O)N(C)C)c3)cc2N(C(=O)C2CCC2)C[C@@H]1C [Example I-1144]	
50 to 500	> 500	1000 to 10000	CCOC(=O)N1C[C@H](C)N(C(C)=O)c2ccc(-c3cccc(NS(=O)(=O)N(C)C)c3)cc21 [Example I-1145]	
50 to 500	100 to 500	100 to 1000	CC(=O)N1c2ccc(-c3cccc(NS(=O)(=O)N(C)C)c3)cc2N(C(=O)OC(C)C)C[C@@H]1C [Example I-1146]	
< 50	< 100	< 100	CC(=O)N1c2ccc(-c3cnn(C4CCOCC4)c3)cc2N(C(=O)OC2CCCC2)C[C@@H]1C [Example I-1147]	
< 50	100 to 500	100 to 1000	CC(=O)N1c2ccc(-c3cnn(C4CCCS(=O)(=O)C4)c3)cc2N(C(=O)OC2CCCC2)C[C@@H]1C (stereo partly drawn) [Example I-1148]	
50 to 500	100 to 500	1000 to 10000	CC(=O)N1c2ccc(-c3cccc(N4CCCS4(=O)=O)c3)cc2N(C(=O)C2CC2)C[C@@H]1C [Example I-1152]	
50 to 500	100 to 500	100 to 1000	CC(=O)N1c2ccc(-c3cccc(N4CCCS4(=O)=O)c3)cc2N(C(=O)OC(C)C)C[C@@H]1C [Example I-1153]	

SMILES	IC50 (BRD4 BD2) [nM]	IC50 (MV4-11 cells; MV4-11, 72 h) [nM]	IC50 (BRD4 BD1) [nM]	IC50 (MV4-11 cells) [nM]
CC(=O)N1c2ccc(-c3cnn(C4CCNCC4)c3)cc2N(C(=O)Oc2ccc(F)cc2)C[C@@H]1C [Example I-1149]	50 to 500		100 to 1000	< 100
CC(=O)N1c2ccc(-c3cnn(C4CNC4)c3)cc2N(C(=O)Oc2ccc(F)cc2)C[C@@H]1C [Example I-1150]	< 50		100 to 1000	100 to 500
COC(=O)N1c2ccc(-c3cnn(C4CCNCC4)c3)cc2N(C(=O)Oc2ccc(F)cc2)C[C@@H]1C [Example I-1151]	50 to 500		100 to 1000	100 to 500
